Assay results taken from US11623919B2, “Heterocyclic P2X7 antagonists” (AXXAM S.P.A., priority 2017, dated 2023).

How the values were obtained:
Experiment in all cases: Screen Quest Fluo-8 No Wash Calcium Assay (Bz-ATP evoked Ca2+ influx, FLIPR)
Assay type in all cases: cell-based
P2X7 receptor [1] = target: T1, P2X7 receptor (Homo sapiens, UniProt Q99572); set-up: hP2X7 (IC50; nM); other: hP2X7; HEK-293 cells stably transfected with P2X7 receptor, Bz-ATP at EC80, Fluo-8 NW; potency; conditions: hP2X7; HEK-293 cells stably transfected with P2X7 receptor, Bz-ATP at EC80, Fluo-8 NW; potency ranges A-D
T1 sequence (Q99572 1-595): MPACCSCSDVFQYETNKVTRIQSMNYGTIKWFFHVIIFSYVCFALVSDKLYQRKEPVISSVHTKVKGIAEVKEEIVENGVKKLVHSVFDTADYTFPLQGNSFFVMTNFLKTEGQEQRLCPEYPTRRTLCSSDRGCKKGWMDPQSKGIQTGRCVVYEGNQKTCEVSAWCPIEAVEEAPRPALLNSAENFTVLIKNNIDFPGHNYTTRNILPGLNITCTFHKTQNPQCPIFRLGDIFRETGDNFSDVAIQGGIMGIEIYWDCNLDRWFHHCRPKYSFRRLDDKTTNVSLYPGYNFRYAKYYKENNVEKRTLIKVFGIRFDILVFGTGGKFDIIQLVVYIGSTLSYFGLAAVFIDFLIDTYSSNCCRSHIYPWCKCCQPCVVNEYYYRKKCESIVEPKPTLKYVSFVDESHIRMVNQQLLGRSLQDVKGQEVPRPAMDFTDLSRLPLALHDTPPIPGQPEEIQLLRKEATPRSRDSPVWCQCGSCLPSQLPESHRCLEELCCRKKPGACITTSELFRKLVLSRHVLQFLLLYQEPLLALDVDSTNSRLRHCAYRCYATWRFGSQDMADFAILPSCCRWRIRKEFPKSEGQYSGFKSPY
Procedure, shortened: (§1)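 Compounds were added to Fluo-8-loaded P2X7-transfected HEK-293 cells 5 min before an EC80 Bz-ATP challenge, and Ca2+ influx was then recorded for 3 min. Buffer held 0.3 mM Ca2+ and no Mg2+. Inhibition was normalised to A438079, giving IC50 values.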

P2X7 receptor [2] = target: T2, P2X7 receptor (Mus musculus, UniProt Q9Z1M0); conditions: mP2X7; HEK-293 cells stably transfected with P2X7 receptor, Bz-ATP at EC80, Fluo-8 NW; potency ranges A-D
T2 construct: mP2X7 (IC50; nM); other: mP2X7; HEK-293 cells stably transfected with P2X7 receptor, Bz-ATP at EC80, Fluo-8 NW; potency
T2 sequence (Q9Z1M0 1-595): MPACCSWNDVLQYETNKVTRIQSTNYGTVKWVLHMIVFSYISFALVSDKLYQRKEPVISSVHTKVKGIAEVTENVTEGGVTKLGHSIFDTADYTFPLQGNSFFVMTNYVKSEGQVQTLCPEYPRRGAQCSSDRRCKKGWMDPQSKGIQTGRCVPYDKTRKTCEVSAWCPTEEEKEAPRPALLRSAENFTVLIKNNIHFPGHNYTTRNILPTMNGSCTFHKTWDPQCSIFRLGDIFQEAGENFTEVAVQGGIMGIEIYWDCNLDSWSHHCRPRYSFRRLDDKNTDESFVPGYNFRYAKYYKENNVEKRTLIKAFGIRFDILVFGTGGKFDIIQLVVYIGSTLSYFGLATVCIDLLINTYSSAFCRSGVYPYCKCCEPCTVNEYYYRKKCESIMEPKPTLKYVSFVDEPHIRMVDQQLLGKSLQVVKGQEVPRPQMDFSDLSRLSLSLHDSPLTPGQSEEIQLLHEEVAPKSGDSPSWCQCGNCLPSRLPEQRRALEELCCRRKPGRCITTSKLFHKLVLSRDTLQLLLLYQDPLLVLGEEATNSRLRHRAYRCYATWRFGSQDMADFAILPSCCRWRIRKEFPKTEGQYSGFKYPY
Procedure, shortened: as §1

P2X7 receptor [3] = target: T3, P2X7 receptor (Rattus norvegicus, UniProt Q64663); conditions: rP2X7; HEK-293 cells stably transfected with P2X7 receptor, Bz-ATP at EC80, Fluo-8 NW; potency ranges A-D
T3 construct: rP2X7 (IC50; nM); other: rP2X7; HEK-293 cells stably transfected with P2X7 receptor, Bz-ATP at EC80, Fluo-8 NW; potency
T3 sequence (Q64663 1-595): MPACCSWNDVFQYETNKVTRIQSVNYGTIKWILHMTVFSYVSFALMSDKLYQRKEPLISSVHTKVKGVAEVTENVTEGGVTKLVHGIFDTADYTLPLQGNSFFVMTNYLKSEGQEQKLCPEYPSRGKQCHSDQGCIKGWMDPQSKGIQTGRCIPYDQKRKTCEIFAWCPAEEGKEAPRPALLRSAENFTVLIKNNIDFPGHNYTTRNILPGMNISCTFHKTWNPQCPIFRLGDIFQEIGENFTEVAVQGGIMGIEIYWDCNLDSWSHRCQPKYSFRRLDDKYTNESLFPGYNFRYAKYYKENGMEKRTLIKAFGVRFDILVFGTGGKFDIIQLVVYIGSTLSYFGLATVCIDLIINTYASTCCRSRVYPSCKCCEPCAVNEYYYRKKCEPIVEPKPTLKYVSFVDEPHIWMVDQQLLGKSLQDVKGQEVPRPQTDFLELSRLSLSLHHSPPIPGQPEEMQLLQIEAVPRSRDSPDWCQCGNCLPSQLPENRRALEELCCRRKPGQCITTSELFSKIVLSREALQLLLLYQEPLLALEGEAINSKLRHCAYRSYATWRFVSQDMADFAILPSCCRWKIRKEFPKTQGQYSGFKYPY
Procedure, shortened: as §1

Row | Compound | IC50 (P2X7 receptor [1]) [nM] | IC50 (P2X7 receptor [2]) [nM] | IC50 (P2X7 receptor [3]) [nM]
1 | COc1cccc(Cc2noc(=O)n2Cc2ccc(F)cc2)c1 [Example 109, 4-[(4-fluorophenyl)methyl]-3-[(3-methoxyphenyl)methyl]-4,5-dihydro-1,2,4-oxadiazol-5-one] | 1000 to 10000 | > 10000 | 1000 to 10000
2 | O=c1onc(Cc2ccccn2)n1CC1CCCCC1 [Example 110, 4-(cyclohexylmethyl)-3-(pyridin-2-ylmethyl)-4,5-dihydro-1,2,4-oxadiazol-5-one] | > 10000 | > 10000 | 1000 to 10000
3 | O=c1onc(Cc2ccncc2)n1CC1CCCCC1 [Example 111, 4-(cyclohexylmethyl)-3-(pyridin-4-ylmethyl)-4,5-dihydro-1,2,4-oxadiazol-5-one] | > 10000 | 200 to 1000 | 1000 to 10000
4 | COc1ccc(Cc2noc(=O)n2CC2CCCCC2)cc1 [Example 112, 4-(cyclohexylmethyl)-3-[(4-methoxyphenyl)methyl]-4,5-dihydro-1,2,4-oxadiazol-5-one] | 1000 to 10000 | 1000 to 10000 | 200 to 1000
5 | O=c1onc(Cc2cccc(C(F)(F)F)c2Cl)n1CC1CCCCC1 [Example 113, 3-{[2-chloro-3-(trifluoromethyl)phenyl]methyl}-4-(cyclohexylmethyl)-4,5-dihydro-1,2,4-oxadiazol-5-one] | 1000 to 10000 | 1000 to 10000 | 1000 to 10000
6 | CC(C)(c1c(F)cccc1Cl)c1noc(=O)n1CC1CCCCC1 [Example 121, 3-[2-(2-chloro-6-fluorophenyl)propan-2-yl]-4-(cyclohexylmethyl)-4,5-dihydro-1,2,4-oxadiazol-5-one] | > 10000 | > 10000 | > 10000
7 | CC(c1c(F)cccc1Cl)c1noc(=O)n1CC1CCCCC1 (stereo not drawn) [Example 122, 3-[1-(2-chloro-6-fluorophenyl)ethyl]-4-(cyclohexylmethyl)-4,5-dihydro-1,2,4-oxadiazol-5-one] | > 10000 | > 10000 | 1000 to 10000
8 | O=c1onc(Cc2cccnc2)n1CC1CCCCC1 [Example 123, 4-(cyclohexylmethyl)-3-(pyridin-3-ylmethyl)-4,5-dihydro-1,2,4-oxadiazol-5-one] | 1000 to 10000 | 1000 to 10000 | 1000 to 10000
9 | O=c1onc(Cc2cccc(F)c2)n1CC1CCCCC1 [Example 125, 4-(cyclohexylmethyl)-3-[(3-fluorophenyl)methyl]-4,5-dihydro-1,2,4-oxadiazol-5-one] | 1000 to 10000 | 1000 to 10000 | 200 to 1000
10 | O=c1onc(Cc2ccccc2)n1CC1CCCCC1 [Example 126, 3-benzyl-4-(cyclohexylmethyl)-4,5-dihydro-1,2,4-oxadiazol-5-one] | 1000 to 10000 | 1000 to 10000 | 200 to 1000
11 | COc1cccc(Cc2noc(=O)n2CC2CCCCC2)c1 [Example 127, 4-(cyclohexylmethyl)-3-[(3-methoxyphenyl)methyl]-4,5-dihydro-1,2,4-oxadiazol-5-one] | > 10000 | > 10000 | > 10000
12 | O=c1onc(CC2CCCCC2)n1CC1CCCCC1 [Example 129, bis(cyclohexylmethyl)-4,5-dihydro-1,2,4-oxadiazol-5-one] | > 10000 | 1000 to 10000 | 1000 to 10000
13 | O=c1onc(CC2CCCCC2)n1Cc1ccc(F)cc1 [Example 131, 3-(cyclohexylmethyl)-4-[(4-fluorophenyl)methyl]-4,5-dihydro-1,2,4-oxadiazol-5-one] | 1000 to 10000 | 1000 to 10000 | 1000 to 10000
14 | O=c1onc(CC2CCC(F)(F)CC2)n1CC1CCCCC1 [Example 133, 4-(cyclohexylmethyl)-3-[(4,4-difluorocyclohexyl)methyl]-4,5-dihydro-1,2,4-oxadiazol-5-one] | 1000 to 10000 | > 10000 | 1000 to 10000
15 | O=c1onc(C(O)c2cccc(C(F)(F)F)c2Cl)n1Cc1c(F)cccc1Cl (stereo not drawn) [Example 135, 3-{[2-chloro-3-(trifluoromethyl)phenyl](hydroxy)methyl}-4-[(2-chloro-6-fluorophenyl)methyl]-4,5-dihydro-1,2,4-oxadiazol-5-one] | 200 to 1000 | > 10000 | > 10000
16 | O=c1onc(C(O)c2cccc(C(F)(F)F)c2Cl)n1Cc1ccccc1 (stereo not drawn) [Example 136, 4-benzyl-3-{[2-chloro-3-(trifluoromethyl)phenyl](hydroxy)methyl}-4,5-dihydro-1,2,4-oxadiazol-5-one] | 1000 to 10000 | > 10000 | > 10000
17 | O=c1onc(C(O)c2ccc(F)cc2F)n1Cc1c(F)cccc1Cl (stereo not drawn) [Example 137, 4-[(2-chloro-6-fluorophenyl)methyl]-3-[(2,4-dffluorophenyl)(hydroxy)methyl]-4,5-dihydro-1,2,4-oxadiazol-5-one] | 1000 to 10000 | 1000 to 10000 | 1000 to 10000
18 | O=c1onc(C(O)c2cccc(Cl)c2Cl)n1Cc1c(F)cccc1Cl (stereo not drawn) [Example 138, 4-[(2-chloro-6-fluorophenyl)methyl]-3-[(2,3-dichlorophenyl)(hydroxy)methyl]-4,5-dihydro-1,2,4-oxadiazol-5-one] | 1000 to 10000 | 1000 to 10000 | 1000 to 10000
19 | O=c1snc(Cc2c(F)cccc2Cl)n1Cc1ccc(F)cc1 [Example 139, 3-[(2-chloro-6-fluorophenyl)methyl]-4-[(4-fluorophenyl)methyl]-4,5-dihydro-1,2,4-thiadiazol-5-one] | 200 to 1000 | 1000 to 10000 | 200 to 1000
20 | O=c1onc(Cc2c(F)cccc2Cl)n1CCN1CCCCC1 [Example 143, 3-(2-chloro-6-fluorobenzyl)-4-[2-(piperidin-1-yl)ethyl]-1,2,4-oxadiazol-5(4H)-one] | 200 to 1000 | 1000 to 10000 | 200 to 1000
21 | O=c1onc(CCc2c(F)cccc2Cl)n1Cc1c(F)cccc1Cl [Example 144, 4-(2-chloro-6-fluorobenzyl)-3-[2-(2-chloro-6-fluorophenyl)ethyl]-1,2,4-oxadiazol-5(4H)-one] | 200 to 1000 | 1000 to 10000 | 200 to 1000
22 | O=c1onc(CCc2c(F)cccc2Cl)n1Cc1ccc(F)cc1 [Example 145, 3-[2-(2-chloro-6-fluorophenyl)ethyl]-4-(4-fluorobenzyl)-1,2,4-oxadiazol-5(4H)-one] | 200 to 1000 | 200 to 1000 | 200 to 1000
